Assay results from patent US9982033B2, “Factor VIII polypeptide titers in cell cultures” (Novo Nordisk A/S, priority 2007, dated 2018).

Legend:
[1] = system: Factor VIII producing cells; test: Supplementing serum-free cell culture medium of Factor VIII producing cells with OPLS (high-cell density perfusion model); type: cell-based, Chinese Hamster; settings: for Factor VIII productivity / Factor VIII protein specific activity: 24 hours, 35° C.
Source text: Cell line: The cell line used for transfection, dhfr− CHO cells DUKX-B11 cells (Urlaub, G. & Chasin, L. A. (1980) Proc. Natl. Acad. Sci. USA 77, 4216-4220), was adapted to grow in suspension cultures using serum-free medium supplemented with ribonucleosides and deoxyribonucleosides.
Expression vector: Factor VIII transcription is achieved using an adenovirus-SV40 promoter and a selection by a di-hydrofolate reductase selection marker. The expressed Factor VIII molecule consist of the heavy chain (HC) and light chain (LC) of Factor VIII connected with a small linker derived from the B-domain. The B-domain has been removed, since this allows for higher expression of Factor VIII and the biological activity of Factor VIII is retained.
Cell culturing during serum free medium supplementation experiments: For media supplement experiments cells were cultivated in a high-cell density perfusion model in 50 mL shaker tubes with vented cap at 35° C. in serum free medium, as described below. Cells were cultivated in large shaker flasks at 37° C. Cell viability was measured at cell harvest, and this was always >95%. Harvested cells were re-suspended into fresh medium. 2.5 mL of the harvested and re-suspended cells was added to 2.5 mL of fresh medium containing the supplement to give a total volume of 5 mL, with a concentration of 1×10^7 cells/mL. Shaker tubes were then placed in shaker at 35° C. and 250 rpm. After 24 hours, samples were assayed for cell density, viability, CoA, ELISA and Factor VIII protein integrity by Western blot.
CoA assay (Factor VIII activity assay): In the presence of calcium and phospholipids, Factor X is activated to Factor Xa by Factor IXa. This generation is greatly stimulated by Factor VIII, which may be considered as a cofactor in this reaction. By using optimal amounts of Ca^2+ and phospholipids and an excess of Factors IXa and X, the rate of activation of Factor X is solely dependent on the amount of Factor VIII. Factor Xa hydrolyses the chromogenic substrate S-2765 thus liberating the chromophoric group, pNA. The colour is then read photometrically at 405 nm. The generated Factor Xa and thus the intensity of colour is proportional to the Factor VIII activity in the sample. Hydrolysis of S-2765 by thrombin formed is prevented by the addition of the synthetic thrombin inhibitor, I-2581, together with the substrate (Chromogenix Coatest SP Factor VIII, diaPharma)
ELISA: Strip wells are pre-coated with sheep polyclonal antibody to human Factor VIII. Samples are diluted and applied to the wells. The Factor VIII antigen present binds to the coated antibody. After washing away unbound material, peroxidase-labeled sheep detecting antibody is applied and allowed to bind to the captured Factor VIII. The wells are again washed and a solution of TMB (the peroxidase substrate tetramethylbenzidine) is applied and allowed to react for a fixed period of time. A blue color develops which changes to yellow upon quenching the reaction with acid. The color formed is measured spectrophotometrically in a microplate reader at 450 nm. The absorbance at 450 nm is directly proportional to the quantity of Factor VIII antigen captured onto the well (VisuLize, FVIII antigen kit, Affinity biologicals). The assay is calibrated using purified B domain deleted Factor VIII.
OPLS was supplemented to serum free cell culture medium in the indicated concentration according to the experimental details described under materials and methods. The results can be seen from the below Table 3 and from FIGS. 2A and 2B.

[2] = system: BDD Factor VIII producing cells (1C5-SF cell line); test: Supplementing serum-free medium of BDD Factor VIII producing cells with O-phospho-L-serine and/or a plant hydrolysate; type: cell-based; settings: O-phospho-L-serine 20 mM and/or plant hydrolysate 5 mg/ml, four days after seeding
Description: ELISA: Strip wells are pre-coated with sheep polyclonal antibody to human Factor VIII. Samples are diluted and applied to the wells. The Factor VIII antigen present binds to the coated antibody. After washing away unbound material, peroxidase-labeled sheep detecting antibody is applied and allowed to bind to the captured Factor VIII. The wells are again washed and a solution of TMB (the peroxidase substrate tetramethylbenzidine) is applied and allowed to react for a fixed period of time. A blue color develops which changes to yellow upon quenching the reaction with acid. The color formed is measured spectrophotometrically in a microplate reader at 450 nm. The absorbance at 450 nm is directly proportional to the quantity of Factor VIII antigen captured onto the well (VisuLize, FVIII antigen kit, Affinity biologicals). […]
F25 ELISA: ELISA: Strip wells are pre-coated with sheep polyclonal antibody to human Factor VIII. […] The color formed is measured spectrophotometrically in a microplate reader at 450 nm. The absorbance at 450 nm is directly proportional to the quantity of Factor VIII antigen captured onto the well. […]
The total Factor VIII antigen content of each culture was determined by sandwich ELISA. […]

[3] = OPLS 0.03 mM in serum free medium
[4] = OPLS 0.1 mM in serum free medium
[5] = OPLS 0.3 mM in serum free medium
[6] = OPLS 10 mM in serum free medium
[7] = OPLS 30 mM in serum free medium

Compound: N[C@@H](COP(=O)(O)O)C(=O)O [OPLS, O-Phospho-L-Serine]
- Factor VIII productivity [1, 3]: 0.068 pcd
- Factor VIII protein specific activity [1, 3]: 11.8 U/microg
- Factor VIII productivity [1, 4]: 0.062 pcd
- Factor VIII protein specific activity [1, 4]: 12.8 U/microg
- Factor VIII productivity [1, 5]: 0.052 pcd
- Factor VIII protein specific activity [1, 5]: 12.2 U/microg
- Factor VIII productivity ([1]; OPLS 1 mM in serum free medium): 0.058 pcd
- Factor VIII protein specific activity ([1]; OPLS 1 mM in serum free medium): 12.6 U/microg
- Factor VIII productivity ([1]; OPLS 3 mM in serum free medium): 0.066 pcd
- Factor VIII protein specific activity ([1]; OPLS 3 mM in serum free medium): 15.8 U/microg
- Factor VIII productivity [1, 6]: 0.10 pcd
- Factor VIII protein specific activity [1, 6]: 15.4 U/microg
- Factor VIII productivity [1, 7]: 0.18 pcd
- Factor VIII protein specific activity [1, 7]: 15.0 U/microg
- specific productivity of Factor VIII producing cells ([1]; conclusion in words, FIG. 2A): increases
- specific activity of Factor VIII ([1]; conclusion in words, FIG. 2B): increases
- proportion of Factor VIII with intact heavy chain C-terminal in the medium ([2]; F25 ELISA versus total Factor VIII antigen): increased
- quality of recombinant Factor VIII from cell cultures (specific activity) ([2]; CDM4CHO medium, FIG. 3A-C): improved
- yield of recombinant Factor VIII from cell cultures ([2]; CDM4CHO medium, FIG. 3A-C): improved
